We go through ten molecules from patent publication US12410136B2, “Pyridinyl morpholine compound, preparation method therefor, and application thereof” (SHANGHAI ZHONGZE THERAPEUTICS, CO. LTD., priority 2020, dated 2025).

SMILES strings stand for the structures. Like-named read-outs stand apart in the source and are kept apart here.

Data set [1] has as its system mouse model of schizophrenia induced by MK-801. Put plainly: MK-801 model experiment (open-field motion). Particulars: for ED50: Mus musculus, 1.5 h, read-out: Effect on the total distance of open-field motion in mouse model of schizophrenia induced by MK-801, ED50; for Improvement rate on open-field motion of mice compared with cariprazine: MK-801 model, oral.
Procedure: An acute mode of administration was used in the experiment. The experimental mice were randomly divided into groups and put into a spontaneous activity box to adapt for 5-10 minutes before the experiment. […] The data were expressed as mean±standard error (Mean±SEM), and were analyzed using GraphPad Prism software, and data analysis was performed using t-test, and a significant difference was considered to exist when P<0.05.
The nature of data set [2]: Acute toxicity experiment, single oral administration. Conditions: ICR, mouse, in vivo. How it is done:
Acute Toxicity Experiments of the Compound
2) Solvent preparation: An appropriate amount of Tween-80 was weighed and diluted with deionized water to a concentration of […] (g/v) Tween-80.
4) Route of administration: The administration route of the test samples and the solvent control group (0.5% Tween-80) was oral administration.
5) Frequency of administration: Single administration, fasting overnight before administration.
6) Dosing capacity: 20 mL/kg.
[…]; the observation period was 2 to 6 days, twice a day, once in the morning and once in the afternoon.
The observation content includes, but is not limited to, general condition, behavioral activity, gait posture, eye, mouth, nose, gastrointestinal tract, skin hair, urogenital tract.
Body weight data were expressed as mean±standard deviation, and were compared between groups using Levene's test and one-way ANOVA. If there were differences, Dunnet t test was used.
In the MTD test, the tolerance of the animals to the drug was investigated, and the maximum tolerated dose was reached when the animals were dying frequently.

In data set [3] the test system is mouse schizophrenic model induced by Apo. Briefly: Apomorphine model experiment (stereotyped motion). The data set is classed as in vivo, C57BL/6 mice. Conditions: for ED50: Mus musculus, single oral administration, apomorphine 5 mg/kg i.p., mice, read-out: Inhibition of total stereotyped motion of mouse schizophrenic model induced by Apo., ED50; for Effect (ED50) on the stereotyped behavior of mice compared with cariprazine: apomorphine model, oral. The procedure:
1. Apomorphine Model Experiment
1) 4 point, continuous biting;
2) 3 point, the cage lid was bit at least once during observation;
3) 2 point, the cage chassis or cage wall was licked at least once during observation;
4) 1 point, compulsive sniffing and bowing activities were appeared;
5) 0 point, no of the above activities.
The total score of the mice was calculated for the above behaviors within 70 min, and the improvement rate was calculated according to the following formula.
During the experiment, the clinical response symptoms of the animals were recorded.
All data were expressed as x±SEM, processed with the 11.5 software statistical package, and t-test and one-way analysis of variance were performed for the comparison of the means of the two samples, with P<0.05 as a significant difference.

Data set [4] has as its target T1, human recombinant D3 receptor (Homo sapiens, UniProt P35462).
T1 construct: expressed in transfected cells; host or cells: CHO
Put plainly: Dopamine D3 receptor binding test. Particulars: [3H]methyl-spiperone 0.3 nM, human recombinant D3 receptor expressed in CHO cells; read-out: Affinity of the compound for each receptor (Ki value, nM) D3. How it is done: Dopamine D3 Receptor Binding Test
[^3H]methyl-spiperone (0.3 nM) was used as the ligand, and (+)-butaclamol (10 μM) was used to determine the non-specific binding, and the binding assay was performed on human recombinant D3 receptor (expressed in CHO cells).

For another data set, the target named is D2 receptor (Homo sapiens, UniProt P14416). Put plainly: Dopamine D2 receptor binding test.
Another data set addresses T2, H1 receptor (Homo sapiens, UniProt P35367).
T2 construct: expressed in transfected cells; host or cells: HEK-293
Put plainly: H1 receptor binding test. Particulars: 1 nM [3H]pyrilamine, HEK-293 cell membrane homogenate; read-out: Affinity of the compound for H1 receptor (Ki value, nM) H1. How it is done:
Non-specific binding was determined in the presence of 1 μM pyrilamine.

In the next data set the target is T3, 5-HT2A receptor (Homo sapiens, UniProt P28223).
T3 construct: expressed in transfected cells; host or cells: HEK293
Briefly: 5-HT2A receptor binding test. An excerpt: 5-HT2A Receptor Binding Test
Beckman LS-6500 multifunctional liquid scintillation counter.
Tris-HCl reaction buffer (pH 7.7) was used to resuspend in the experiment.

[5] abbreviates: single oral administration, ICR mice, read-out: MTD (maximum tolerance).
Setting [6] is: [3H]-Ketanserin, 5-HT2A receptor expressed in HEK293 cells, read-out: Affinity of the compound for each receptor (Ki value, nM) 5-HT2A.

T1 sequence (P35462 whole entry): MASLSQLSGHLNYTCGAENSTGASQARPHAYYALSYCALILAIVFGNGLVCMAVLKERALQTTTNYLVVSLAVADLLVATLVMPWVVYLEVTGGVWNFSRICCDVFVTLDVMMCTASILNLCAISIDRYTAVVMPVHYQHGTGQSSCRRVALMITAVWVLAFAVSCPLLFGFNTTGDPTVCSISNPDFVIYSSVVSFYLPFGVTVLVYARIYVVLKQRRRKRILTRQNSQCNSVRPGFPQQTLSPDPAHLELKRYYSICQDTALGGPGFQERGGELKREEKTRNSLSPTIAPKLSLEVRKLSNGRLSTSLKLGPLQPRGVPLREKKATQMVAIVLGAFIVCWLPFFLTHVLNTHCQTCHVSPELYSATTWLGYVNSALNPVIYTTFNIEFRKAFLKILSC
Sequence of D2 receptor (P14416 whole entry): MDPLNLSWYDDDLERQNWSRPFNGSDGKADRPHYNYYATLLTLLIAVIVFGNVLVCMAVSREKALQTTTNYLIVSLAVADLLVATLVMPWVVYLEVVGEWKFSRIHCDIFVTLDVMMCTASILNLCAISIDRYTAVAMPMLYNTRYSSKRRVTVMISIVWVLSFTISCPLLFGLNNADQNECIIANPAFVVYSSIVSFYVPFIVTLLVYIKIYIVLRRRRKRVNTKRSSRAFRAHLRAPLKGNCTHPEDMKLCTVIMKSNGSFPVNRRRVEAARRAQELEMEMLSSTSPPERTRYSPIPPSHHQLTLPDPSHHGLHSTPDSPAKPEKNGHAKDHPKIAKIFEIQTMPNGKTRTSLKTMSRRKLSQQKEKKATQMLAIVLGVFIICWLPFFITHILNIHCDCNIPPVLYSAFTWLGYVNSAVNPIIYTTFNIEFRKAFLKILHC
T2 sequence (P35367 whole entry): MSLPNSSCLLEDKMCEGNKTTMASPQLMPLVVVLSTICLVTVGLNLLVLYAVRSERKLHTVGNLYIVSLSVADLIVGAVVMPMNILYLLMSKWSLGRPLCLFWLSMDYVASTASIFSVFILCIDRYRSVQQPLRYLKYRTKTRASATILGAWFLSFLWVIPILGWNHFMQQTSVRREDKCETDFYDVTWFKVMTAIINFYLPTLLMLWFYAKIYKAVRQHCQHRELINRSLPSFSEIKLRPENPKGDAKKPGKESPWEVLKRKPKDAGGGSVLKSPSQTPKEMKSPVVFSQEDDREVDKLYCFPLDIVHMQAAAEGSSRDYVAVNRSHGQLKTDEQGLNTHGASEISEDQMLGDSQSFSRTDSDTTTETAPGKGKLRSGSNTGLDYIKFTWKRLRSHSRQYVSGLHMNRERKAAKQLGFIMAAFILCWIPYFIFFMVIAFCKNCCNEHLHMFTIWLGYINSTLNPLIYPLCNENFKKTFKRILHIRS
T3 sequence (P28223 whole entry): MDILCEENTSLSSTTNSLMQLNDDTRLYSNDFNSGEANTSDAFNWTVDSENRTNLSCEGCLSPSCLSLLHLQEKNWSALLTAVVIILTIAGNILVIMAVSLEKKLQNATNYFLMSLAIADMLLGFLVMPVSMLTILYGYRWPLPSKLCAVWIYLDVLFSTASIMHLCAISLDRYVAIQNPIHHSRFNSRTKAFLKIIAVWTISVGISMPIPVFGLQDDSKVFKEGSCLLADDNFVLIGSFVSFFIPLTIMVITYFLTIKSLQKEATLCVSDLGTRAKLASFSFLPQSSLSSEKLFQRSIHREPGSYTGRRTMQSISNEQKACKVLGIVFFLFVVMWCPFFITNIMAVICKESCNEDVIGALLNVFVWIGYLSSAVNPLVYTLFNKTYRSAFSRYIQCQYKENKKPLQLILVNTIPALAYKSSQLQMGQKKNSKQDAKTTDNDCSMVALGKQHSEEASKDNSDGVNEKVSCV
Procedure for D2 receptor: Dopamine D2 Receptor Binding Test
In this experiment, HEK293 cells were transfected with plasmid vector containing D2 receptor protein gene, and calcium phosphate transfection method was used and after transfection, the cells were cultured in a culture solution containing G418, and the cell monoclonal and radioligand binding experiments were selected, and finally a stable cell line which could stably express D2 receptor protein was obtained.
HeK-293 cells were infected with recombinant viruses containing the above various genes respectively, and after 48-72 hours, the receptor proteins were expressed in large quantities on the membrane, and the cells were centrifuged at 1000 rpm for 5 min and then the culture solution was discarded, and the cells were collected, and stored in a −20° C. refrigerator for later use. Tris-HCl reaction buffer (pH=7.5) was used to resuspend in the experiment.
On the Millipore cell sample collector, the mixture was quickly filtrated under reduced pressure through GF/C glass fiber filter paper, and eluted with 3 mL of eluent (50 mMTris-HCl, pH 7.5) for 3 times, then dried under microwave for 5 to 6 min. The filter paper was moved into a 0.5 mL centrifuge tube, and 500 μL of lipid-soluble scintillation solution was added. The mixture was kept in the dark for more than 30 min, and the radioactivity intensity was determined by counting. […] Two replicate tubes were made for each experiment of compound, and two separate experiments were performed.
Two tubes were tested for each concentration and two independent tests were performed for each compound.

In the case of `CN(C)C(=O)N[C@H]1CC[C@H](CCN2CCN(c3cccc(Cl)c3Cl)CC2)CC1` [Cariprazine, cariprazine, reference compound], the values for the ED50 in data set [1] and in data set [3] were 0.15 mg/kg and 0.3 mg/kg, respectively. Besides, the MTD in data set [2] stood at 320 mg/kg.
Consider `CCOC(=O)N[C@H]1CC[C@H](CCN2CCN(c3cc(-c4ccccc4)cc(N4CCOCC4)n3)CC2)CC1` [Compound I-3, ethyl ((trans)-4-(2-(4-(6-morpholino-4-phenylpyridin-2-yl)piperazin-1-yl)ethyl)cyclohexyl)carbamate], for which the Ki in data set [4] is 0.08 nM; at D2 receptor, 2.5 nM; on H1 receptor it was over 1000 nM; on 5-HT2A receptor it was 2.1 nM. Besides, the figures for the ED50 in data set [1] and in data set [3] were 0.33 mg/kg and 0.19 mg/kg, respectively. In data set [2] (setting [5]), the MTD is at least 400 mg/kg. The “Effect (ED50) on the stereotyped behavior of mice compared with cariprazine” value (shortened to “Effect (ED50) … compared with cariprazine”) in data set [3] is “better effects”.
As to `O=C(N[C@H]1CC[C@H](CCN2CCN(c3cc(-c4ccccc4)cc(N4CCOCC4)n3)CC2)CC1)c1ccco1` [Compound I-6, N-((trans)-4-(2-(4-(6-morpholino-4-phenylpyridin-2-yl)piperazin-1-yl)ethyl)cyclohexyl)furan-2-carboxamide], the Ki in data set [4] was 0.02 nM; on D2 receptor, 0.14 nM; at H1 receptor, over 1000 nM; on 5-HT2A receptor (setting [6]), 1 nM. The ED50 in data set [1] came to 0.2 mg/kg; in data set [3] it was 0.43 mg/kg. The MTD in data set [2] (setting [5]) was over 2000 mg/kg.
Turning to `O=C(N[C@H]1CC[C@H](CCN2CCN(c3cc(-c4ccco4)cc(N4CCOCC4)n3)CC2)CC1)N1CCOCC1` [Compound V-5, N-(trans-4-(2-(4-(4-(furan-2-yl)-6-morpholinopyridin-2-yl)piperazin-1-yl)ethyl)cyclohexyl)morpholine-4-carboxamide], the Ki in data set [4] was 0.04 nM; at D2 receptor, 1 nM; on H1 receptor, over 1000 nM; on 5-HT2A receptor (setting [6]), 2.9 nM. Moreover, the values for the ED50 in data set [1] and in data set [3] were 0.51 mg/kg and 0.78 mg/kg, respectively. In data set [2] (setting [5]), the MTD is at least 400 mg/kg.
As to `O=C(N[C@H]1CC[C@H](CCN2CCN(c3cc(-c4ccc(F)cc4)cc(N4CCOCC4)n3)CC2)CC1)c1cccnc1` [II-2, N-(trans-4-(2-(4-(4-(4-fluorophenyl)-6-morpholinopyridin-2-yl)piperazin-1-yl)ethyl)cyclohexyl)nicotinamide], the Ki was 0.07 nM in data set [4], 0.9 nM on D2 receptor, over 1000 nM on H1 receptor and 2.4 nM on 5-HT2A receptor (setting [6]). Also, the “Improvement rate on open-field motion of mice compared with cariprazine” value (from here on “Improvement rate … compared with cariprazine”) in data set [1] is “better”. Moreover, the ED50 in data set [1] amounted to 0.07 mg/kg; in data set [3] it was 0.08 mg/kg. Besides, the MTD in data set [2] (setting [5]) was at least 400 mg/kg. Further, the “Effect (ED50) … compared with cariprazine” value in data set [3] is “better effects”.
For the molecule `CCCN(C)C(=O)N[C@H]1CC[C@H](CCN2CCN(c3cc(-c4ccc(F)cc4)cc(N4CCOCC4)n3)CC2)CC1` [II-6, 3-(trans-4-(2-(4-(4-(4-fluorophenyl)-6-morpholinopyridin-2-yl)piperazin-1-yl)ethyl)cyclohexyl)-1-methyl-1-propylurea], the Ki in data set [4] was 0.04 nM; at D2 receptor, 1 nM; at H1 receptor, over 1000 nM; on 5-HT2A receptor (setting [6]), 1.3 nM. Also, the “Improvement rate … compared with cariprazine” value in data set [1] is listed as “better”. Further, the results for the ED50 in data set [1] and in data set [3] were 0.1 mg/kg and 0.13 mg/kg, respectively. Further, the “Effect (ED50) … compared with cariprazine” value in data set [3] was “better effects”.
For `O=C(N[C@H]1CC[C@H](CCN2CCN(c3cc(-c4cccnc4)cc(N4CCOCC4)n3)CC2)CC1)c1ccco1` [IV-2], the inhibition constant (Ki) in data set [4] was 0.03 nM; at D2 receptor, 0.9 nM; at H1 receptor, over 1000 nM; on 5-HT2A receptor (setting [6]) it was 1.1 nM. Moreover, the “Improvement rate … compared with cariprazine” value in data set [1] is on record as “better”. For the same molecule, the ED50 in data set [1] came out at 0.05 mg/kg; in data set [3] it was 0.1 mg/kg. Also, the MTD in data set [2] (setting [5]) was over 2000 mg/kg. In data set [3], the “Effect (ED50) … compared with cariprazine” value is “better effects”.
Take `CC(=O)N[C@H]1CC[C@H](CCN2CCN(c3cc(-c4cccs4)cc(N4CCOCC4)n3)CC2)CC1` [VI-1, N-(trans-4-(2-(4-(6-morpholino-4-(thiophen-2-yl)pyridin-2-yl)piperazin-1-yl)ethyl)cyclohexyl)acetamide]: the Ki is 0.05 nM in data set [4], 0.8 nM at D2 receptor, over 1000 nM at H1 receptor and 1.6 nM at 5-HT2A receptor (setting [6]). In addition, the “Improvement rate … compared with cariprazine” value in data set [1] is given as “better”. The ED50 in data set [1] worked out at 0.12 mg/kg; in data set [3], 0.55 mg/kg.
On to `O=C(N[C@H]1CC[C@H](CCN2CCN(c3cc(-c4cccs4)cc(N4CCOCC4)n3)CC2)CC1)N1CCCC1` [VI-5, N-(trans-4-(2-(4-(6-morpholino-4-(thiophen-2-yl)pyridin-2-yl)piperazin-1-yl)ethyl)cyclohexyl)tetrahydropyrrole-1-carboxamide], for which the inhibition constant Ki was 0.07 nM in data set [4], 1 nM on D2 receptor, over 1000 nM on H1 receptor and 1.1 nM on 5-HT2A receptor (setting [6]). For the same molecule, the ED50 in data set [1] was 0.08 mg/kg; in data set [3], 0.16 mg/kg. The MTD in data set [2] (setting [5]) is over 2000 mg/kg. Also, the “Effect (ED50) … compared with cariprazine” value in data set [3] is on record as “better effects”.
Take `CN(C)C(=O)N[C@H]1CC[C@H](CCN2CCN(c3cc(-c4ccc[nH]4)cc(N4CCOCC4)n3)CC2)CC1` [VII-4, 1,1-dimethyl-3-(trans-4-(2-(4-(6-morpholino-4-(1H-pyrrol-2-yl)pyridin-2-yl)piperazin-1-yl)ethyl)cyclohexyl)urea]: the Ki in data set [4] was 0.03 nM; at D2 receptor, 0.6 nM; on H1 receptor, over 1000 nM; on 5-HT2A receptor (setting [6]), 1.1 nM. Also, the ED50 was found to be 0.25 mg/kg in data set [1] and 0.2 mg/kg in data set [3]. Besides, the MTD in data set [2] (setting [5]) is at least 400 mg/kg. For the same molecule, in data set [3], the “Effect (ED50) … compared with cariprazine” value is “better effects”.
